Earlier results, collected in PubChem BioAssay AID1259409 (Chemical Carcinogenesis Research Information System (CCRIS), 2018).

Test system: rodent chemically induced tumor inhibition, incidence and multiplicity
Assay: CCRIS tumor inhibitor studies
Conditions: Carcinogen: 4-(METHYLNITROSAMINO)-1-(3-PYRIDYL)-1-BUTANONE; 64091-91-4; Dose [Inhibitor]: 0; 5 UMOL IN 0.1 ML CORN OIL ONCE 2 HR PRIOR TO CARCINOGEN DOSE (STUDY DURATION: 16 WK); Route [Inhibitor]: GAVAGE; Species: MOUSE; Strain/Sex: STRAIN-A/FEMALE; Target Tissue: Type of Lesion: LUNG: ADENOMA; Dose [Carcinogen]: 10 UMOL IN 0.1 ML SALINE ONCE; Promoter: NONE USED

C#CCCc1ccccc1
tumour outcome (control, treated, inhibition, significance): 100%, 60%, 40%, p<0.01
